Target: LRRK2 wild-type (Homo sapiens (Human), UniProt Q5S007)
Test: LanthaScreen LRRK2 Biochemical Activity Assay
Conditions: human recombinant LRRK2 (amino acids 970-2527) wild-type, ATP 57 μM, TR-FRET; read-out: IC50 (nM), inhibition of LRRK2 wild-type kinase activity
Procedure: The ability of a compound of Formula (I) to inhibit LRRK2 kinase activity is measured using a LanthaScreen™ kinase activity assay. In general, in a LanthaScreen™ kinase activity assay, kinase, fluorescein-labeled substrate, and ATP are allowed to react. Then EDTA (to stop the reaction) and terbium-labeled antibody (to detect phosphorylated product) are added. In a LanthaScreen™ kinase reaction, the antibody associates with the phosphorylated fluorescein labeled substrate resulting in an increased TR-FRET value. The TR-FRET value is a dimensionless number that is calculated as the ratio of the acceptor (fluorescein) signal to the donor (terbium) signal. The amount of antibody that is bound to the tracer is directly proportional to the amount of phosphorylated substrate present, and in this manner, kinase activity can be detected and measured by an increase in the TR-FRET value. Accordingly, in this Example, enzyme reactions are carried out in a kinase reaction buffer in the presence or absence of representative compounds of Formula (I) at various concentrations in 384-well plate at room temperature for 60 minutes. The kinase reaction buffer contains human recombinant LRRK2 protein (amino acids 970-2527, 5 nM), ATP (57 μM for LRRK2 wild-type, 134 μM for G2019S mutant protein), Fluorescein-LRRKtide substrate (0.4 mM), 50 mM Tris pH 7.5, 10 mM MgCl2, 1 mM EGTA, 0.01% Brij™-35, and 2 mM DTT. The final reaction volume for each reaction is 10 μL. The reactions are initated by adding the substrate and stopped by the addition of 10 μL of a TR-FRET dilution buffer supplemented with a kinase quench buffer (10 mM EDTA final) and Tb-anti-pLRRKtide (2 nM final). The plate is further incubated at room temperature for another 60 minutes, and the fluorescent signals are read on an EnVision® multilabel plate reader (PerkinElmer, Waltham, MA) with excitation at 340 nm and emission at 495 and 520 nm. The assay signal is determined as a ratio of FRET-specific signal measured with emission filter at 520 nm to that of the signal measured with Tb-specific emission filter at 495 nm. IC50 values for compound-mediated enzyme inhibition are calculated using appropriate programs in GraphPad Prism software by plotting the logarithm of the compound concentrations versus percent inhibition. All reagents are purchased from Thermo Fisher Scientific.

Chain of LRRK2 wild-type (Q5S007 970-2527): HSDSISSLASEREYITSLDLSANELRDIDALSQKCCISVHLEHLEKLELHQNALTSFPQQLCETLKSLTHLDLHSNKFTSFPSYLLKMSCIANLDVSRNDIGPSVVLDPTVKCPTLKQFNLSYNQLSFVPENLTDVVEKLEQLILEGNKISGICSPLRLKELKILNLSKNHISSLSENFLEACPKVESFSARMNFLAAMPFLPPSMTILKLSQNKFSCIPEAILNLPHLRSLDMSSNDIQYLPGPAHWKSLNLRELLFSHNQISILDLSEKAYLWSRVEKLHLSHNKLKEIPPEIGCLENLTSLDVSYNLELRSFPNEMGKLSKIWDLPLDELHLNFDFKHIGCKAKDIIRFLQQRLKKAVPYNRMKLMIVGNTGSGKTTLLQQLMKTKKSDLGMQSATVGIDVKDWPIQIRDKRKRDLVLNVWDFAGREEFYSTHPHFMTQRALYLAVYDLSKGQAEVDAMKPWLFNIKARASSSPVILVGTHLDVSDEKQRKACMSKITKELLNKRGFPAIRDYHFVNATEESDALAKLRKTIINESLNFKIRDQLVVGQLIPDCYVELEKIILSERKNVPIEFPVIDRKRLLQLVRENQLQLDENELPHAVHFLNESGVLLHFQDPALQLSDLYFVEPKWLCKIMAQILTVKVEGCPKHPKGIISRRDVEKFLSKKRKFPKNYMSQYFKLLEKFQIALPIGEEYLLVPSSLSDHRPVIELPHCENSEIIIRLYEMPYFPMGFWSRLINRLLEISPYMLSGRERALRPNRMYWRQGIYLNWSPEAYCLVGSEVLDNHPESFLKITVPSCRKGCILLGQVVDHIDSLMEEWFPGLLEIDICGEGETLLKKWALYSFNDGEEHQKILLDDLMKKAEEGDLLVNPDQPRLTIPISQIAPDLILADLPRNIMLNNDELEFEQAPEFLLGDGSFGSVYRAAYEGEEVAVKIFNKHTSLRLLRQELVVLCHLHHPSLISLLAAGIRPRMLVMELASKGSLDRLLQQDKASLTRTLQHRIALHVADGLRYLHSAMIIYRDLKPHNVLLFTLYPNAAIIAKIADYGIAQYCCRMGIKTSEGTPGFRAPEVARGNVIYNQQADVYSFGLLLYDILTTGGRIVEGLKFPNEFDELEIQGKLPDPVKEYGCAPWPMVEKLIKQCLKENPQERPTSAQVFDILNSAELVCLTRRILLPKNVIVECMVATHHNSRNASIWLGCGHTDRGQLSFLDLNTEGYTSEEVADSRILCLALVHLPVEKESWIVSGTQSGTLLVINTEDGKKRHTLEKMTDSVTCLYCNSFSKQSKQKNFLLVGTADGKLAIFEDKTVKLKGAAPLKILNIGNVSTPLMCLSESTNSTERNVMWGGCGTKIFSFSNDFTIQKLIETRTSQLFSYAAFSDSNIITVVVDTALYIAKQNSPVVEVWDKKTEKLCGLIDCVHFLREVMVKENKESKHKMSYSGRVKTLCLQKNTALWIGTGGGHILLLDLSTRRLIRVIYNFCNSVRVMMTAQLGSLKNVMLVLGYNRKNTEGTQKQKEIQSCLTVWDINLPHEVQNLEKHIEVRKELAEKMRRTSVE

IC50 [nM]	SMILES
101 to 400	CS(=O)(=O)N1CCCC(c2cccc(-c3cnn4ccccc34)n2)C1 (centres unmarked) [Example 26, 3-[6-(1-methylsulfonyl-3-piperidyl)-2-pyridyl]pyrazolo[1,5-a]pyridine]
101 to 400	COc1cc(-c2cnn3ccccc23)nc(C2CCCNC2)c1 (centres unmarked) [Example 27, 3-(4-methoxy-6-(piperidin-3-yl)pyridin-2-yl)pyrazolo[1,5-a]pyridine]
11 to 100	Clc1cc(-c2cnn3ccccc23)nc(C2CCCNC2)c1 (centres unmarked) [Example 28, 3-(4-chloro-6-(piperidin-3-yl)pyridin-2-yl)pyrazolo[1,5-a]pyridine]
11 to 100	Clc1ccc(-c2cnn3ccccc23)nc1C1CCCNC1 (centres unmarked) [Example 29, 3-[5-chloro-6-(3-piperidyl)-2-pyridyl]pyrazolo[1,5-a]pyridine]
101 to 400	Clc1ccc(C2CCCNC2)nc1-c1cnn2ccccc12 (centres unmarked) [Example 30, 3-(3-chloro-6-(piperidin-3-yl)pyridin-2-yl)pyrazolo[1,5-a]pyridine]
101 to 400	Fc1cc(-c2cnn3ccccc23)nc(C2CCCNC2)c1 (centres unmarked) [Example 31, 3-[4-fluoro-6-(3-piperidyl)-2-pyridyl]pyrazolo[1,5-a]pyridine]
11 to 100	Fc1ccc(C2CCCNC2)nc1-c1cnn2ccccc12 (centres unmarked) [Example 32, 3-[3-fluoro-6-(3-piperidyl)-2-pyridyl]pyrazolo[1,5-a]pyridine]
101 to 400	Fc1ccc(-c2cnn3ccccc23)nc1C1CCCNC1 (centres unmarked) [Example 33, 3-[5-fluoro-6-(3-piperidyl)-2-pyridyl]pyrazolo[1,5-a]pyridine]
11 to 100	Clc1cc(-c2cnn3ccc(Cl)cc23)nc(C2CCCNC2)c1 (centres unmarked) [Example 34, 5-chloro-3-[4-chloro-6-(3-piperidyl)-2-pyridyl]pyrazolo[1,5-a]pyridine]
11 to 100	Fc1cc(-c2cnn3ccc(Cl)cc23)nc(C2CCCNC2)c1 (centres unmarked) [Example 35]
11 to 100	FC(F)(F)c1ccn2ncc(-c3cc(Cl)cc(C4CCCNC4)n3)c2c1 (centres unmarked) [Example 36, 3-(4-chloro-6-(piperidin-3-yl)pyridin-2-yl)-5-(trifluoromethyl)pyrazolo[1,5-a]pyridine]
101 to 400	c1cc(-c2cnn3ccccc23)nc(N2CCNCC2)c1 [Example 37, 3-(6-piperazin-1-yl-2-pyridyl)pyrazolo[1,5-a]pyridine]
11 to 100	CNc1ccn2ncc(-c3cccc(N4CCNCC4)n3)c2c1 [Example 38, N-methyl-3-(6-piperazin-1-yl-2-pyridyl)pyrazolo[1,5-a]pyridin-5-amine]
11 to 100	CNc1ccn2ncc(-c3cc(Cl)cc(N4CCNCC4)n3)c2c1 [Example 39, 3-(4-chloro-6-piperazin-1-yl-2-pyridyl)-N-methyl-pyrazolo[1,5-a]pyridin-5-amine]
11 to 100	FC(F)(F)c1ccn2ncc(-c3cccc(N4CCNCC4)n3)c2c1 [Example 40, 3-(6-piperazin-1-yl-2-pyridyl)-5-(trifluoromethyl)pyrazolo[1,5-a]pyridine]
11 to 100	FC(F)(F)c1ccn2ncc(-c3cc(Cl)cc(N4CCNCC4)n3)c2c1 [Example 41, 3-(4-chloro-6-piperazin-1-yl-2-pyridyl)-5-(trifluoromethyl) pyrazolo[1,5-a]pyridine]

Continued, compound first:

SMILES	IC50 [nM]
Clc1ccn2ncc(-c3cccc(C4CCCNC4)n3)c2c1 (racemic) [Example 5, Rac-5-chloro-3-[6-(3-piperidyl)-2-pyridyl]pyrazolo[1,5-a]pyridine]	11 to 100
Clc1ccn2ncc(-c3cccc([C@@H]4CCCNC4)n3)c2c1 (single isomer, unassigned) [Example 6, (+)-5-chloro-3-(6-(piperidin-3-yl)pyridin-2-yl)pyrazolo[1,5-a]pyridine]	101 to 400
Clc1ccn2ncc(-c3cccc([C@H]4CCCNC4)n3)c2c1 (single isomer, unassigned) [Example 7, (−)-5-chloro-3-(6-(piperidin-3-yl)pyridin-2-yl)pyrazolo[1,5-a]pyridine]	≤ 10
c1cc(-c2cnn3ccccc23)nc(C2CCNCC2)c1 [Example 1, 3-[6-(4-piperidyl)-2-pyridyl]pyrazolo[1,5-a]pyridine]	101 to 400
CN1CCC(c2cccc(-c3cnn4ccccc34)n2)CC1 [Example 2, 3-[6-(1-methyl-4-piperidyl)-2-pyridyl]pyrazolo[1,5-a]pyridine]	101 to 400
c1cc(-c2cnn3ccccc23)nc(C2CCNC2)c1 (centres unmarked) [Example 3, 3-(6-pyrrolidin-3-yl-2-pyridyl)pyrazolo[1,5-a]pyridine]	101 to 400
Clc1ccn2ncc(-c3cccc(C4CCNC4)n3)c2c1 (centres unmarked) [Example 4, 5-chloro-3-(6-(pyrrolidin-3-yl)pyridin-2-yl)pyrazolo[1,5-a]pyridine]	11 to 100
Brc1ccn2ncc(-c3cccc(C4CCCNC4)n3)c2c1 (centres unmarked) [Example 8, 5-bromo-3-[6-(3-piperidyl)-2-pyridyl]pyrazolo[1,5-a]pyridine]	11 to 100
Cc1ccn2ncc(-c3cccc(C4CCCNC4)n3)c2c1 (centres unmarked) [Example 9, 5-methyl-3-[6-(3-piperidyl)-2-pyridyl]pyrazolo[1,5-a]pyridine]	11 to 100
FC(F)(F)c1ccn2ncc(-c3cccc(C4CCCNC4)n3)c2c1 (centres unmarked) [Example 10, 3-[6-(3-piperidyl)-2-pyridyl]-5-(trifluoromethyl)pyrazolo[1,5-a]pyridine]	11 to 100
COc1ccn2ncc(-c3cccc(C4CCCNC4)n3)c2c1 (centres unmarked) [Example 11, 5-methoxy-3-[6-(3-piperidyl)-2-pyridyl]pyrazolo[1,5-a]pyridine]	11 to 100
Oc1ccn2ncc(-c3cccc(C4CCCNC4)n3)c2c1 (centres unmarked) [Example 12, 3-(6-(piperidin-3-yl)pyridin-2-yl)pyrazolo[1,5-a]pyridin-5-ol]	101 to 400
CC(C)Oc1ccn2ncc(-c3cccc(C4CCCNC4)n3)c2c1 (centres unmarked) [Example 13, 5-isopropoxy-3-[6-(3-piperidyl)-2-pyridyl]pyrazolo[1,5-a]pyridine]	11 to 100
c1cc(-c2cnn3ccc(OCC4CC4)cc23)nc(C2CCCNC2)c1 (centres unmarked) [Example 14, 5-(cyclopropylmethoxy)-3-[6-(3-piperidyl)-2-pyridyl]pyrazolo[1,5-a]pyridine]	101 to 400
c1cc(-c2cnn3ccc(OCC4COC4)cc23)nc(C2CCCNC2)c1 (centres unmarked) [Example 15, 5-(oxetan-3-ylmethoxy)-3-[6-(3-piperidyl)-2-pyridyl]pyrazolo[1,5-a]pyridine]	101 to 400
c1cc(-c2cnn3ccc(N4CCOCC4)cc23)nc(C2CCCNC2)c1 (centres unmarked) [Example 16, 4-[3-[6-(3-piperidyl)-2-pyridyl]pyrazolo[1,5-a]pyridin-5-yl]morpholine]	101 to 400
N#Cc1ccn2ncc(-c3cccc(C4CCCNC4)n3)c2c1 (centres unmarked) [Example 17, 3-[6-(3-piperidyl)-2-pyridyl]pyrazolo[1,5-a]pyridine-5-carbonitrile]	11 to 100
c1cc(-c2cnn3ccc(C4CC4)cc23)nc(C2CCCNC2)c1 (centres unmarked) [Example 18, 5-cyclopropyl-3-[6-(3-piperidyl)-2-pyridyl]pyrazolo[1,5-a]pyridine]	11 to 100
Nc1ccn2ncc(-c3cccc(C4CCCNC4)n3)c2c1 (centres unmarked) [Example 19, 3-[6-(3-piperidyl)-2-pyridyl]pyrazolo[1,5-a]pyridin-5-amine]	101 to 400
CNc1ccn2ncc(-c3cccc(C4CCCNC4)n3)c2c1 (centres unmarked) [Example 20, N-methyl-3-[6-(3-piperidyl)-2-pyridyl]pyrazolo[1,5-a]pyridin-5-amine]	≤ 10
CCNc1ccn2ncc(-c3cccc(C4CCCNC4)n3)c2c1 (centres unmarked) [Example 21, N-ethyl-3-[6-(3-piperidyl)-2-pyridyl]pyrazolo[1,5-a]pyridin-5-amine]	11 to 100
CS(=O)(=O)NCCC(=O)Nc1ccn2ncc(-c3cccc(C4CCCNC4)n3)c2c1 (centres unmarked) [Example 22, 3-(methylsulfonamido)-N-(3-(6-(piperidin-3-yl)pyridin-2-yl)pyrazolo[1,5-a]pyridin-5-yl)propanamide]	11 to 100
CS(=O)(=O)NCCC(=O)Nc1ccc2c(-c3cccc(C4CCCNC4)n3)cnn2c1 (centres unmarked) [Example 23, 3-(methanesulfonamido)-N-[3-[6-(3-piperidyl)-2-pyridyl]pyrazolo[1,5-a]pyridin-6-yl]propanamide]	101 to 400
CS(=O)(=O)NCCNC(=O)c1ccc2c(-c3cccc(C4CCCNC4)n3)cnn2c1 (centres unmarked) [Example 24, N-[2-(methanesulfonamido)ethyl]-3-[6-(3-piperidyl)-2-pyridyl]pyrazolo[1,5-a]pyridine-6-carboxamide]	101 to 400
CS(=O)(=O)NCC(=O)N1CCCC(c2cccc(-c3cnn4ccccc34)n2)C1 (centres unmarked) [Example 25, N-[2-oxo-2-[3-(6-pyrazolo[1,5-a]pyridin-3-yl-2-pyridyl)-1-piperidyl]ethyl]methanesulfonamide]	101 to 400

Reference: patent publication US20250051363A1, “Substituted Pyrazolopyridines” (Neuro3 Therapeutics, Inc., priority 2023, published 2025)
